Measured values taken from PMC9981747, “A covalent BTK ternary complex compatible with targeted protein degradation” (Nature Communications, 2023).
Values joined by “and” are separate entries in the source; they are usually repeats but may differ in a detail not shown here. Equal entries are not always repeated.

Target: T1, BTK^FL-F559A (Homo sapiens, UniProt Q06187+Q13490, F559A)
T1 construct: we used a full-length BTK (aa1-659) with a C terminal Tobacco Etch Virus protease (TEV) site; expressed in transfected cells; host or cells: Expi293 (HEK293)
Assay: Expi293 dose-dependent degradation of BTK^FL-F559A
Type: cell-based
Details: for BTK^FL-F559A blot signal normalized to DMSO: replicates
Method: Gibco Expi293 cell line Transfection Kit (Cat.# A14524) was cultured according to the manufacturers conditions. Cells were grown at 37 °C with 5% CO2 to 4 × 10^6 cells/mL using an orbital shaker set to 95 RPM. Next cells were split to 2 × 10^6 cells/mL and transfected with plasmid DNA at a 1 µg/mL final concentration in Optimem (Gibco 31985070) using the Expifectamine 293 transfection reagent according to manufacturer’s conditions. After approximately 18 h, enhancers 1 and 2 (provided with kit). Viability was typically about 85%. When cIAP1^FL was transfected, it was detected via α-cIAP1 antibody there was typically some autoubiquitination detected, and thus often appeared as a laddered or smeared band via western blotting. When BTK^FL variants were transfected, they were detected using anti-BTK antibody (D3H5).
For dose-dependent degradation assays, cells were plated in a 24-well format and placed on a separate orbital shaker set to 115 RPM. Each well was treated with prescribed compound concentrations in the same manner as with THP-1 cells, with the exception of using Expifectamine 293 growth medium in place of RPMI 1640 complete media. After approximately 18 h post-treatment cells were harvested, centrifuged at 100 x g at 4 °C, washed twice with ice-cold PBS, and resuspended in RIPA buffer supplemented with a Roche protease inhibitor cocktail (Cat. #11873580001), and benzonase nuclease (Millipore-Sigma Cat# 70664). Each sample was incubated on ice for 30 min with periodic vortexing and centrifuged at 15 Kxg for 20 min. Clarified lysate was harvested and quantified using a Pierce BCA Assay Kit (Cat. #23225), and 20 µg of the sample was loaded into a 4–15% Criterion TGX gel (Bio-Rad, 5678085) and transferred to a nitrocellulose membrane (Life Technologies Cat. #IB23001) using an iBlot 2 (Life Technologies Cat. #IB21001). Proteins were detected using an iBind system (Life Technologies SLF2020). For BTK^T474I and BTK^T474I/C481S we inferred ligand entry into cells via the autoubiquitination and dose-dependent degradation of cIAP1^FL,[58].
Dose-dependent Degradation was analyzed using ImageJ (NIH, version 1.50i). Densiometric analysis was performed, normalized to DMSO signal, and analyzed using GraphPad Prism (Version 9.0.0 (121)). Non-linear fit one-phase decay analysis was used to obtain DC50 values. When we observed a hook effect, some points were excluded as part of the fit. In Supplementary Fig. 7B the complete curve was fit using GraphPad Prism non-linear regression bell-shaped curve where X is the concentration. However, using this method we were unable to obtain stable values for our DC50. SEM error was plotted for each point. When determining statistically significant differences, we used a two-sided student’s unpaired T-Test.

T1 sequence (Q06187 whole entry F559A, the tested form may be a part): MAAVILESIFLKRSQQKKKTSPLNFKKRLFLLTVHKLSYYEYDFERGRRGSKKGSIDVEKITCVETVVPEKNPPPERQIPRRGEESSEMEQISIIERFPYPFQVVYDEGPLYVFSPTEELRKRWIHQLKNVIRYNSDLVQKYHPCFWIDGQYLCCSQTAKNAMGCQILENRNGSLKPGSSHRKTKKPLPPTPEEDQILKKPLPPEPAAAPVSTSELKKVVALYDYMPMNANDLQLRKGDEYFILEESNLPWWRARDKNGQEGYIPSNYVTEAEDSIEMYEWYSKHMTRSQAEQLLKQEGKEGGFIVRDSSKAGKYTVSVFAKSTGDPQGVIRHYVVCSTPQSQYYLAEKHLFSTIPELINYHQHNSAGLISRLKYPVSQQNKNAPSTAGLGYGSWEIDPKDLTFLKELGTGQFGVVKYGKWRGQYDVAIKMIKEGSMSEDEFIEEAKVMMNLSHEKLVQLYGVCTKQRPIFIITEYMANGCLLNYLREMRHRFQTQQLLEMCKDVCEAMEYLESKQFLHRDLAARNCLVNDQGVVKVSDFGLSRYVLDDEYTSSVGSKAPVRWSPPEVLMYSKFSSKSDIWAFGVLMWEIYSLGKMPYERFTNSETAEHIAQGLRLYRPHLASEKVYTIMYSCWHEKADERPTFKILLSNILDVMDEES
T1 sequence (Q13490 whole entry, the tested form may be a part): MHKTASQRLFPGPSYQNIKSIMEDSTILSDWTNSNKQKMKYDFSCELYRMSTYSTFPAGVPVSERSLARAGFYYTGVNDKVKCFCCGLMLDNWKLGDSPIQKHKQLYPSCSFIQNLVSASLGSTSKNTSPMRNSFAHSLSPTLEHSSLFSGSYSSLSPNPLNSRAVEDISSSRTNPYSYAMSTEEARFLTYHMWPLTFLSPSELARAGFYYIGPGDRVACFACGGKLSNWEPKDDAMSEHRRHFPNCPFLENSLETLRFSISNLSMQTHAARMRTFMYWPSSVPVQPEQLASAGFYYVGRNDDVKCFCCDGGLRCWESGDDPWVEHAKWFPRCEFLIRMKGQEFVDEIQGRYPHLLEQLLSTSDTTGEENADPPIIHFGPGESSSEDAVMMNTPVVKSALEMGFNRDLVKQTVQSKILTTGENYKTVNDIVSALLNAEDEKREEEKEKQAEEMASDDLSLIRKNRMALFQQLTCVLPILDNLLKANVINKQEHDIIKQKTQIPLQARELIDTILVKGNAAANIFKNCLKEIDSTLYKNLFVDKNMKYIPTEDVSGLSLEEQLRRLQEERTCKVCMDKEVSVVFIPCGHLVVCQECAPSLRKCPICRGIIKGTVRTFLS

**Q.** For CNC(C)C(=O)NC(C(=O)N1CC(NC(=O)COCCN2CCN(CC=CC(=O)N3CCCC(n4nc(-c5ccc(Oc6ccccc6)cc5)c5c(N)ncnc54)C3)CC2)CC1C(=O)NC1CCCc2ccccc21)C1CCCCC1 (centres unmarked) [BCCov], which “BTK^FL-F559A blot signal normalized to DMSO” value (0.00976562 uM) is on record?
**A.** 1.17 and 1.06 and 0.96

**Q.** What about the “BTK^FL-F559A blot signal normalized to DMSO” value (0.0195312 uM) of the same compound?
**A.** 1.16 and 1.04 and 1.13

**Q.** What about the “BTK^FL-F559A blot signal normalized to DMSO” value (0.0390625 uM) of the same compound?
**A.** 0.92 and 0.90 and 0.89

**Q.** And the “BTK^FL-F559A blot signal normalized to DMSO” value (0.078125 uM)?
**A.** 0.58 (2×) and 0.71

**Q.** And the “BTK^FL-F559A blot signal normalized to DMSO” value (0.15625 uM)?
**A.** 0.39 and 0.23 and 0.37

**Q.** What about the “BTK^FL-F559A blot signal normalized to DMSO” value (0.3125 uM) of the same compound?
**A.** 0.25 and 0.12 and 0.28

**Q.** And the “BTK^FL-F559A blot signal normalized to DMSO” value (0.625 uM)?
**A.** 0.23 and 0.10 and 0.24

**Q.** And the “BTK^FL-F559A blot signal normalized to DMSO” value (1.25 uM)?
**A.** 0.22 and 0.0565 and 0.18

**Q.** And the “BTK^FL-F559A blot signal normalized to DMSO” value (2.5 uM)?
**A.** 0.23 and 0.05 and 0.19

**Q.** And the “BTK^FL-F559A blot signal normalized to DMSO” value (5 uM)?
**A.** 0.18 and 0.08 and 0.22

**Q.** What about the “degradation of F559A mutant” value (Expi293) of the same compound?
**A.** retains potent cellular degradation
